Patent US20230017045A1, “PYRIDINE AND PYRIMIDINE CARBOXYLATE HERBICIDES AND METHODS OF USE THEREOF” (Dow AgroSciences LLC, priority 2017, published 2023)

Tested on: test plant species
Experiment: Post-emergent herbicidal activity test (greenhouse, foliar spray, visual growth reduction)
Assay type: in vivo
Details: post-emergence, 336 h, ALOMY: blackgrass (Alopecurus myosuroides), 140 g ai/ha, 14 days after application, read-out: Visual Growth Reduction (%) 14 Days After Application, ALOMY
Method in brief: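 Greenhouse plants at first–second true leaf stage sprayed overhead at 187 L/ha with compound in acetone/water/isopropanol/DMSO/crop oil/X-77 carrier; controls received solvent blank. Injury rated visually after 14 d on a 0–100% scale versus untreated and control plants, converted to growth reduction.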

| SMILES | pest or weed control at 140 g/ha |
| --- | --- |
| COC(=O)c1nc(-c2cc3c(cc2Cl)OC(F)(F)O3)c(Cl)cc1Cl [F154, Methyl 3,5-dichloro-6-(6-chloro-2,2-difluorobenzo[d] [1,3]dioxol-5-yl)picolinate] | 0 to 29% |
| COC(=O)c1nc(-c2ccc(F)cc2Cl)ccc1Cl [F37, Methyl 3-chloro-6-(2-chloro-4-fluorophenyl) picolinate] | 0 to 29% |

Same assay, conditions: post-emergence, 336 h, AMARE: redroot pigweed (Amaranthus retroflexus), 140 g ai/ha, 14 days after application, read-out: Visual Growth Reduction (%) 14 Days After Application, AMARE

| SMILES | pest or weed control at 140 g/ha |
| --- | --- |
| COC(=O)c1nc(-c2cc3c(cc2Cl)OC(F)(F)O3)c(Cl)cc1Cl [F154, Methyl 3,5-dichloro-6-(6-chloro-2,2-difluorobenzo[d] [1,3]dioxol-5-yl)picolinate] | 85 to 94% |
| COC(=O)c1nc(-c2ccc(F)cc2Cl)ccc1Cl [F37, Methyl 3-chloro-6-(2-chloro-4-fluorophenyl) picolinate] | 85 to 94% |

Same assay, conditions: post-emergence, 336 h, AVEFA: wild oat (Avena fatua), 140 g ai/ha, 14 days after application, read-out: Visual Growth Reduction (%) 14 Days After Application, AVEFA

| SMILES | pest or weed control at 140 g/ha |
| --- | --- |
| COC(=O)c1nc(-c2cc3c(cc2Cl)OC(F)(F)O3)c(Cl)cc1Cl [F154, Methyl 3,5-dichloro-6-(6-chloro-2,2-difluorobenzo[d] [1,3]dioxol-5-yl)picolinate] | 0 to 29% |
| COC(=O)c1nc(-c2ccc(F)cc2Cl)ccc1Cl [F37, Methyl 3-chloro-6-(2-chloro-4-fluorophenyl) picolinate] | 0 to 29% |

Same assay, conditions: post-emergence, 336 h, CHEAL: lambsquarters (Chenopodium album), 140 g ai/ha, 14 days after application, read-out: Visual Growth Reduction (%) 14 Days After Application, CHEAL

| SMILES | pest or weed control at 140 g/ha |
| --- | --- |
| COC(=O)c1nc(-c2cc3c(cc2Cl)OC(F)(F)O3)c(Cl)cc1Cl [F154, Methyl 3,5-dichloro-6-(6-chloro-2,2-difluorobenzo[d] [1,3]dioxol-5-yl)picolinate] | 85 to 94% |
| COC(=O)c1nc(-c2ccc(F)cc2Cl)ccc1Cl [F37, Methyl 3-chloro-6-(2-chloro-4-fluorophenyl) picolinate] | 60 to 74% |

Same assay, conditions: post-emergence, 336 h, CIRAR: canada thistle (Cirsium arvense), 140 g ai/ha, 14 days after application, read-out: Visual Growth Reduction (%) 14 Days After Application, CIRAR

| SMILES | pest or weed control at 140 g/ha |
| --- | --- |
| COC(=O)c1nc(-c2cc3c(cc2Cl)OC(F)(F)O3)c(Cl)cc1Cl [F154, Methyl 3,5-dichloro-6-(6-chloro-2,2-difluorobenzo[d] [1,3]dioxol-5-yl)picolinate] | 0 to 29% |
| COC(=O)c1nc(-c2ccc(F)cc2Cl)ccc1Cl [F37, Methyl 3-chloro-6-(2-chloro-4-fluorophenyl) picolinate] | 0 to 29% |

Same assay, conditions: post-emergence, 336 h, CYPES: yellow nutsedge (Cyperus esculentus), 140 g ai/ha, 14 days after application, read-out: Visual Growth Reduction (%) 14 Days After Application, CYPES

| SMILES | pest or weed control at 140 g/ha |
| --- | --- |
| COC(=O)c1nc(-c2cc3c(cc2Cl)OC(F)(F)O3)c(Cl)cc1Cl [F154, Methyl 3,5-dichloro-6-(6-chloro-2,2-difluorobenzo[d] [1,3]dioxol-5-yl)picolinate] | 0 to 29% |
| COC(=O)c1nc(-c2ccc(F)cc2Cl)ccc1Cl [F37, Methyl 3-chloro-6-(2-chloro-4-fluorophenyl) picolinate] | 0 to 29% |

Same assay, conditions: post-emergence, 336 h, DIGSA: crabgrass (Digitaria sanguinalis), 140 g ai/ha, 14 days after application, read-out: Visual Growth Reduction (%) 14 Days After Application, DIGSA

| SMILES | pest or weed control at 140 g/ha |
| --- | --- |
| COC(=O)c1nc(-c2cc3c(cc2Cl)OC(F)(F)O3)c(Cl)cc1Cl [F154, Methyl 3,5-dichloro-6-(6-chloro-2,2-difluorobenzo[d] [1,3]dioxol-5-yl)picolinate] | 60 to 74% |
| COC(=O)c1nc(-c2ccc(F)cc2Cl)ccc1Cl [F37, Methyl 3-chloro-6-(2-chloro-4-fluorophenyl) picolinate] | 0 to 29% |

Same assay, conditions: post-emergence, 336 h, ECHCG: barnyardgrass (Echinochloa crus-galli), 140 g ai/ha, 14 days after application, read-out: Visual Growth Reduction (%) 14 Days After Application, ECHCG

| SMILES | pest or weed control at 140 g/ha |
| --- | --- |
| COC(=O)c1nc(-c2cc3c(cc2Cl)OC(F)(F)O3)c(Cl)cc1Cl [F154, Methyl 3,5-dichloro-6-(6-chloro-2,2-difluorobenzo[d] [1,3]dioxol-5-yl)picolinate] | 0 to 29% |
| COC(=O)c1nc(-c2ccc(F)cc2Cl)ccc1Cl [F37, Methyl 3-chloro-6-(2-chloro-4-fluorophenyl) picolinate] | 0 to 29% |

Same assay, conditions: post-emergence, 336 h, IPOHE: ivy-leaf morning glory (Ipomoea hederacea), 140 g ai/ha, 14 days after application, read-out: Visual Growth Reduction (%) 14 Days After Application, IPOHE

| SMILES | pest or weed control at 140 g/ha |
| --- | --- |
| COC(=O)c1nc(-c2cc3c(cc2Cl)OC(F)(F)O3)c(Cl)cc1Cl [F154, Methyl 3,5-dichloro-6-(6-chloro-2,2-difluorobenzo[d] [1,3]dioxol-5-yl)picolinate] | 95 to 100% |
| COC(=O)c1nc(-c2ccc(F)cc2Cl)ccc1Cl [F37, Methyl 3-chloro-6-(2-chloro-4-fluorophenyl) picolinate] | 75 to 84% |

Same assay, conditions: post-emergence, 336 h, KCHSC: kochia (Bassia scoparia), 140 g ai/ha, 14 days after application, read-out: Visual Growth Reduction (%) 14 Days After Application, KCHSC

| SMILES | pest or weed control at 140 g/ha |
| --- | --- |
| COC(=O)c1nc(-c2cc3c(cc2Cl)OC(F)(F)O3)c(Cl)cc1Cl [F154, Methyl 3,5-dichloro-6-(6-chloro-2,2-difluorobenzo[d] [1,3]dioxol-5-yl)picolinate] | 0 to 29% |
| COC(=O)c1nc(-c2ccc(F)cc2Cl)ccc1Cl [F37, Methyl 3-chloro-6-(2-chloro-4-fluorophenyl) picolinate] | 0 to 29% |

Same assay, conditions: post-emergence, 336 h, ORYSA: rice (Oryza sativa), 140 g ai/ha, 14 days after application, read-out: Visual Growth Reduction (%) 14 Days After Application, ORYSA

| SMILES | pest or weed control at 140 g/ha |
| --- | --- |
| COC(=O)c1nc(-c2cc3c(cc2Cl)OC(F)(F)O3)c(Cl)cc1Cl [F154, Methyl 3,5-dichloro-6-(6-chloro-2,2-difluorobenzo[d] [1,3]dioxol-5-yl)picolinate] | 0 to 29% |
| COC(=O)c1nc(-c2ccc(F)cc2Cl)ccc1Cl [F37, Methyl 3-chloro-6-(2-chloro-4-fluorophenyl) picolinate] | 0 to 29% |

Same assay, conditions: post-emergence, 336 h, SETFA: giant foxtail (Setaria faberi), 140 g ai/ha, 14 days after application, read-out: Visual Growth Reduction (%) 14 Days After Application, SETFA

| SMILES | pest or weed control at 140 g/ha |
| --- | --- |
| COC(=O)c1nc(-c2cc3c(cc2Cl)OC(F)(F)O3)c(Cl)cc1Cl [F154, Methyl 3,5-dichloro-6-(6-chloro-2,2-difluorobenzo[d] [1,3]dioxol-5-yl)picolinate] | 45 to 59% |
| COC(=O)c1nc(-c2ccc(F)cc2Cl)ccc1Cl [F37, Methyl 3-chloro-6-(2-chloro-4-fluorophenyl) picolinate] | 0 to 29% |

Same assay, conditions: post-emergence, 336 h, SORVU: grain sorghum (Sorghum vulgare), 140 g ai/ha, 14 days after application, read-out: Visual Growth Reduction (%) 14 Days After Application, SORVU

| SMILES | pest or weed control at 140 g/ha |
| --- | --- |
| COC(=O)c1nc(-c2cc3c(cc2Cl)OC(F)(F)O3)c(Cl)cc1Cl [F154, Methyl 3,5-dichloro-6-(6-chloro-2,2-difluorobenzo[d] [1,3]dioxol-5-yl)picolinate] | 60 to 74% |
| COC(=O)c1nc(-c2ccc(F)cc2Cl)ccc1Cl [F37, Methyl 3-chloro-6-(2-chloro-4-fluorophenyl) picolinate] | 75 to 84% |

Same assay, conditions: post-emergence, 336 h, STEME: common chickweed (Stellaria media), 140 g ai/ha, 14 days after application, read-out: Visual Growth Reduction (%) 14 Days After Application, STEME

| SMILES | pest or weed control at 140 g/ha |
| --- | --- |
| COC(=O)c1nc(-c2cc3c(cc2Cl)OC(F)(F)O3)c(Cl)cc1Cl [F154, Methyl 3,5-dichloro-6-(6-chloro-2,2-difluorobenzo[d] [1,3]dioxol-5-yl)picolinate] | 0 to 29% |
| COC(=O)c1nc(-c2ccc(F)cc2Cl)ccc1Cl [F37, Methyl 3-chloro-6-(2-chloro-4-fluorophenyl) picolinate] | 0 to 29% |

Same assay, conditions: post-emergence, 336 h, TRZAS: wheat, spring (Triticum aestivum), 140 g ai/ha, 14 days after application, read-out: Visual Growth Reduction (%) 14 Days After Application, TRZAS

| SMILES | pest or weed control at 140 g/ha |
| --- | --- |
| COC(=O)c1nc(-c2cc3c(cc2Cl)OC(F)(F)O3)c(Cl)cc1Cl [F154, Methyl 3,5-dichloro-6-(6-chloro-2,2-difluorobenzo[d] [1,3]dioxol-5-yl)picolinate] | 0 to 29% |
| COC(=O)c1nc(-c2ccc(F)cc2Cl)ccc1Cl [F37, Methyl 3-chloro-6-(2-chloro-4-fluorophenyl) picolinate] | 0 to 29% |
